The values below come from ChEMBL document CHEMBL3734669, “Δ(5)-Cholenoyl-amino acids as selective and orally available antagonists of the Eph-ephrin system” (Eur J Med Chem, 2015).

pIC50: −log10 of the molar value. In brackets after ≈: the same amount, converted by molar mass.

The target of one data set is Ephrin type-A receptor 4 (Homo sapiens, UniProt P54764). The data set is described as follows: Displacement of biotinylated ephrin-A1-Fc from EphA4 (unknown origin) preincubated for 1 hr followed by biotinylated-ephrin-A1-Fc addition measured after 4 hrs by ELISA. For orientation: In an ELISA, binding on a coated surface is turned into a signal by an enzyme label.
The target of the next data set is T1, Ephrin type-A receptor 8 (Homo sapiens, UniProt P29322).
T1 sequence (P29322 whole entry): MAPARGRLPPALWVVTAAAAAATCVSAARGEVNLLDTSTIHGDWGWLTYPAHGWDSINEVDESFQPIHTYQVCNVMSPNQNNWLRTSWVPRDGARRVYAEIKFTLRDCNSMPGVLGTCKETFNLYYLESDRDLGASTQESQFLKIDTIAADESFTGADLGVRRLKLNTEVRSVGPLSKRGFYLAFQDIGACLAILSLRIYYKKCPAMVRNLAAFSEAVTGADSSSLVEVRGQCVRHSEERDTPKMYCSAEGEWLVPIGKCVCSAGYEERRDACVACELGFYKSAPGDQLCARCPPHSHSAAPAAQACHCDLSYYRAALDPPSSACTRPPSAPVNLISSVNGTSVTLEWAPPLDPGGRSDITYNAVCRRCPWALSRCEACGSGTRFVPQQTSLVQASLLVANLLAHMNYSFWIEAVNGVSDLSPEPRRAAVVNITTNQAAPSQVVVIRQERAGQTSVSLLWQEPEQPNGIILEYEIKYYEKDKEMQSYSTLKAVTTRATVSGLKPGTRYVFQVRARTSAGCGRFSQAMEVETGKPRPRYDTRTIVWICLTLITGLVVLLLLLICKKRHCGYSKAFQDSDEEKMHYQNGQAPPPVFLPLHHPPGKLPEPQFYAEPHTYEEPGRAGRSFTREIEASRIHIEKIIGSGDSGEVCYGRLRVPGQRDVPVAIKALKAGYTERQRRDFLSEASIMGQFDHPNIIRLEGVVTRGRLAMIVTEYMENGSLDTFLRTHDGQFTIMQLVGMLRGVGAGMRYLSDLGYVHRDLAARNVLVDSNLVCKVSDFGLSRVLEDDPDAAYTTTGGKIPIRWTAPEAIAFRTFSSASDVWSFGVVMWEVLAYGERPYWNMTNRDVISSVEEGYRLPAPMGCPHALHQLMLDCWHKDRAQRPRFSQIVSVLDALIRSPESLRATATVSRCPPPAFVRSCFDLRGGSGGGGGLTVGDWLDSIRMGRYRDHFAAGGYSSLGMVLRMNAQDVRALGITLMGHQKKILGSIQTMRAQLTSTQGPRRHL
The experiment in a line: (§1) Displacement of biotinylated ephrin-A1-Fc from EphA8 (unknown origin) preincubated for 1 hr followed by biotinylated-ephrin-A1-Fc addition measured after 4 hrs by ELISA.

For data set [1], the target named is T2, Ephrin type-A receptor 8 (Homo sapiens) (UniProt P29322).
T2 sequence (whole entry): T1 sequence (P29322 whole entry)
The data set is described as §1.

For data set [2], the target named is T3, Ephrin type-A receptor 6 (Homo sapiens) (UniProt Q9UF33).
T3 sequence (whole entry): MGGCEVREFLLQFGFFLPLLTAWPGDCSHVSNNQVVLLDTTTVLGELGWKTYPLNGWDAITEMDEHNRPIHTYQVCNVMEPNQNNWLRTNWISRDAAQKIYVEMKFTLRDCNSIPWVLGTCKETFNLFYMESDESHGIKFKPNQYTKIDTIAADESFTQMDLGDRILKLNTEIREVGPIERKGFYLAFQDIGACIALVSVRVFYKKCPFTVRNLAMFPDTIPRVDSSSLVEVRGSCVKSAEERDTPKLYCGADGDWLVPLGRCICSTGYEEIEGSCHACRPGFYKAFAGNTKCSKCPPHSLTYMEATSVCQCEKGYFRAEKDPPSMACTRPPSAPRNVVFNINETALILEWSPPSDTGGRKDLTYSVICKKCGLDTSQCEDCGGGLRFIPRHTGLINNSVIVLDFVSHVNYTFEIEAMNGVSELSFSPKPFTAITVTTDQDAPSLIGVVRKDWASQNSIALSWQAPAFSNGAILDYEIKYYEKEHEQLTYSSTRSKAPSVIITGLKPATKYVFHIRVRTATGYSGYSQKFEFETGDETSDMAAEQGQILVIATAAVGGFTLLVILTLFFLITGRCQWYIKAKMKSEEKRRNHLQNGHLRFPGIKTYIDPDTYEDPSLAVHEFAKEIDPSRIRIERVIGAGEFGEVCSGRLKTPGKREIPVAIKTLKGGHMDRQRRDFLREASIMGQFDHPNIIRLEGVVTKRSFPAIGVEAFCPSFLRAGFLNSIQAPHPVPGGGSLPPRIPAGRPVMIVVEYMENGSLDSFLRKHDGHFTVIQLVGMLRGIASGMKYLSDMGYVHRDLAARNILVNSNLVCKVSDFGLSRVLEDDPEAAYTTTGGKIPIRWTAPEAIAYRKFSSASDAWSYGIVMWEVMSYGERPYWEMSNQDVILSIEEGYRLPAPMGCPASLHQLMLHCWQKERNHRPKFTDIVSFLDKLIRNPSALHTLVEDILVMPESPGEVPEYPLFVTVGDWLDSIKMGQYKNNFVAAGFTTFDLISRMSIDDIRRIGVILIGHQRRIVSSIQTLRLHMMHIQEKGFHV
The experiment in a line: (§2) Displacement of biotinylated ephrin-A1-Fc from EphA6 (unknown origin) preincubated for 1 hr followed by biotinylated-ephrin-A1-Fc addition measured after 4 hrs by ELISA.

In a further data set the target is T4, Ephrin type-A receptor 6 (Homo sapiens, UniProt Q9UF33).
T4 sequence (Q9UF33 whole entry): T3 sequence (whole entry)
The description is as §2.

The nature of data set [3]: Kinetic solubility of the compound in NaCl solution at 25 deg C after 2 hrs by HPLC-ESI-MS/MS analysis. The following applies: read-out: Kinetic_solubility. It is filed as physicochemical.
Another data set concerns the target Ephrin type-A receptor 7 (Homo sapiens, UniProt Q15375). The experiment in a line: Displacement of biotinylated ephrin-A1-Fc from EphA7 (unknown origin) preincubated for 1 hr followed by biotinylated-ephrin-A1-Fc addition measured after 4 hrs by ELISA.
A short description of data set [4]: Cmax in mouse at 30 mg/kg, po administered as single dose by HPLC-MS analysis. In kind it is ADME, organism-based. On the set-up: dose 30 mg/kg, route oral. The following applies: in vivo.

Sequence of Ephrin type-A receptor 4 (P54764 whole entry): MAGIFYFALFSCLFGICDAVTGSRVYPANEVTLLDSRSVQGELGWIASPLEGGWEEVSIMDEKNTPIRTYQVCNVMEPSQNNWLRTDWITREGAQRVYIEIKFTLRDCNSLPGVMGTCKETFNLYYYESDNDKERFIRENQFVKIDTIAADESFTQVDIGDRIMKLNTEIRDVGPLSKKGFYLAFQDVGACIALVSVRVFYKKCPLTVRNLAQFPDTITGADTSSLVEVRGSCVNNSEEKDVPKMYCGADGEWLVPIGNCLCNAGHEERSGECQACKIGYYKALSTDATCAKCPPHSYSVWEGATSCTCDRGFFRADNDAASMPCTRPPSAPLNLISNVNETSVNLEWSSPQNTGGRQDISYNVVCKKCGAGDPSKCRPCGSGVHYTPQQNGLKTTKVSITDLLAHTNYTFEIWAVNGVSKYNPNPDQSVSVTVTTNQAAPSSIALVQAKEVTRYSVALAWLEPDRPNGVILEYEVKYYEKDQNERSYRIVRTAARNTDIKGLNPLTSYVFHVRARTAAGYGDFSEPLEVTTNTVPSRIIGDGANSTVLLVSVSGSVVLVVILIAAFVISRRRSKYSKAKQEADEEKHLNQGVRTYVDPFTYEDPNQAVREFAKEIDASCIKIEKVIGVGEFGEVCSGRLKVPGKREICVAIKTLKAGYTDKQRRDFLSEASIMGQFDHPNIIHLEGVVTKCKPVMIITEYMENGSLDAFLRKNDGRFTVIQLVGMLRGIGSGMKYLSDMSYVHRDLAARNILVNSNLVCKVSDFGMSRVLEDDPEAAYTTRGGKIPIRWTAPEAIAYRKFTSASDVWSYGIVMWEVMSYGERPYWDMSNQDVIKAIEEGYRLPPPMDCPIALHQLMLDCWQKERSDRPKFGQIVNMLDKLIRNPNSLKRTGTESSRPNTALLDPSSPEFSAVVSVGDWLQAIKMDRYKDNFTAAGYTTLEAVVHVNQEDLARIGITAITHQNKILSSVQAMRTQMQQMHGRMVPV

The pIC50 is the IC50 on a negative log10 scale, so that one unit is a factor of ten. Higher therefore signals a small IC50. As a reminder, the Cmax is the peak of the concentration-time curve. In the case of `C[C@H](CCC(=O)N[C@@H](Cc1c[nH]c2ccccc12)C(=O)O)[C@H]1CC[C@H]2[C@@H]3CC=C4C[C@@H](O)CC[C@]4(C)[C@H]3CC[C@]12C`, the pIC50 at Ephrin type-A receptor 4 is 5.42; on Ephrin type-A receptor 8, 5.51; on Ephrin type-A receptor 6, 5.46; at Ephrin type-A receptor 7, 5.60. Besides, the inhibition entry (on Ephrin type-A receptor 4; in data set [1]; in data set [2]; on Ephrin type-A receptor 7) was “Dose-dependent effect” in each case. In addition, in data set [3], the solubility kinetic at 2 h is 31.5 µM (≈ 17.7 µg/mL). Besides, the Cmax in data set [4] was determined as 1400 nM.
